# Earlier results as cited in US6372198B1, “Dentifrice for the mineralization and remineralization of teeth” (priority 2000, dated 2002).
# System: periodontal disease
# Conditions: oral administration (pills, capsules, powders); certain clinical studies
smiles,measurement,value
COC1=C(OC)C(=O)C(C/C=C(\C)CC/C=C(\C)CC/C=C(\C)CC/C=C(\C)CC/C=C(\C)CC/C=C(\C)CC/C=C(\C)CC/C=C(\C)CC/C=C(\C)CCC=C(C)C)=C(C)C1=O [coenzyme Q10],"symptoms of periodontal disease, including inflammation, swelling, and bleeding of the gum tissues",alleviated the symptoms of periodontal disease
